{
  "source": "patent US7977342B2",
  "about": "“HCV inhibiting bi-cyclic pyrimidines” (Tibotec-Virco Virology BVBA, priority 2007, dated 2011)",
  "data": [
    {"test_system": "HCV replicons (HCV RNA replication) in Huh-7 luc/neo cells", "test": "Stable replicon cell reporter assay (Huh-Luc, luciferase)", "type": "cell-based", "details": "Hepatitis C virus, 72 h; Huh-Luc (Huh-7 luc/neo) cells, HCV type 1b NS3-NS5B replicon, luciferase readout, three days incubation", "text": "The compounds of the present invention were examined for activity in the inhibition of HCV RNA replication in a cellular assay. […] The cellular assay was based on a bicistronic expression construct, as described by Lohmann et al. (1999) Science vol. 285 pp. 110-113 with modifications described by Krieger et al. (2001) Journal of Virology 75: 4614-4624, in a multi-target screening strategy. In essence, the method was as follows.\nThe assay utilized the stably transfected cell line Huh-7 luc/neo (hereafter referred to as Huh-Luc). This cell line harbored an RNA encoding a bicistronic expression construct comprising the wild type NS3-NS5B regions of HCV type 1b translated from an Internal Ribosome Entry Site (IRES) from encephalomyocarditis virus (EMCV), preceded by a reporter portion (FfL-luciferase), and a selectable marker portion (neo^R, neomycine phosphotransferase). The construct was bordered by 5′ and 3′ NTRs (non-translated regions) from HCV type 1b. Continued culture of the replicon cells in the presence of G418 (neo^R) was dependent on the replication of the HCV RNA. The stably transfected replicon cells that expressed HCV RNA, which replicated autonomously and to high levels, encoding inter alia luciferase, were used for screening the antiviral compounds.\nThe replicon cells were plated in 384 well plates in the presence of the test and control compounds which were added in various concentrations. Following an incubation of three days, HCV replication was measured by assaying luciferase activity (using standard luciferase assay substrates and reagents and a Perkin Elmer ViewLux™ ultraHTS microplate imager). Replicon cells in the control cultures had high luciferase expression in the absence of any inhibitor. The inhibitory activity of the compound on luciferase activity was monitored on the Huh-Luc cells, enabling a dose-response curve for each test compound. EC50 values were then calculated, which value represented the amount of the compound required to decrease by 50% the level of detected luciferase activity, or more specifically, the ability of the genetically linked HCV replicon RNA to replicate.", "units": {"EC50": "nM"}, "values": [
      {"compound": "Cc1noc2nc(-c3cc(Cl)ccc3F)nc(Nc3ccncc3)c12", "note": "[Compound 8]", "EC50": 400},
      {"compound": "Cc1cnccc1Nc1nc(-c2cc(Cl)ccc2F)nc2c1CCC2", "note": "[Compound 20]", "EC50": 700},
      {"compound": "NC(=O)c1cnccc1Nc1nc(-c2cc(Cl)ccc2F)nc2c1CCC2", "note": "[Compound 21]", "EC50": 400},
      {"compound": "CNC(=O)c1cnccc1Nc1nc(-c2cc(Cl)ccc2F)nc2c1CCC2", "note": "[Compound 35]", "EC50": 1500},
      {"compound": "CNC(=O)c1cnccc1Nc1nc(-c2cc(Cl)ccc2F)nc2c1CCCC2", "note": "[Compound 40]", "EC50": 7300},
      {"compound": "CC1CCc2nc(-c3cc(Cl)ccc3F)nc(Nc3ccncc3C(N)=O)c21", "note": "(centres unmarked) [Compound 46]", "EC50": 1600},
      {"compound": "CNC(=O)c1cnccc1Nc1nc(-c2cc(Cl)ccc2F)nc2c1C(C)CC2", "note": "(centres unmarked) [Compound 47, 4-[2-(5-Chloro-2-fluorophenyl)-5-methyl-6,7-dihydro-5H-cyclopentapyrimidin-4-ylamino]-N-methyl-nicotinamide]", "EC50": 27700},
      {"compound": "CC1CCc2nc(-c3cc(Cl)ccc3F)nc(Nc3ccncc3C(=O)O)c21", "note": "(centres unmarked) [Compound 49, 4-[2-(5-Chloro-2-fluorophenyl)-5-methyl-6,7-dihydro-5H-cyclopentapyrimidin-4-ylamino]-nicotinic acid]", "EC50": 13100},
      {"compound": "C[C@H](O)CNC(=O)c1cnccc1Nc1nc(-c2cc(Cl)ccc2F)nc2c1CCCC2", "note": "[Compound 57]", "EC50": 24000},
      {"compound": "NNC(=O)c1cnccc1Nc1nc(-c2cc(Cl)ccc2F)nc2c1CCC2", "note": "[Compound 58]", "EC50": 10300},
      {"compound": "CCN(CC)CCNC(=O)c1cnccc1Nc1nc(-c2cc(Cl)ccc2F)nc2c1CCCC2", "note": "[Compound 59]", "EC50": 2000},
      {"compound": "CC1(C)Cc2nc(-c3cc(Cl)ccc3F)nc(Nc3ccncc3C(N)=O)c2C1", "note": "[Compound 62, 4-[2-(5-Chloro-2-fluoro-phenyl)-6,6-dimethyl-6,7-dihydro-5H-cyclopentapyrimidin-4-ylamino]-nicotinamide]", "EC50": 800},
      {"compound": "CN(C)CCCNC(=O)c1cnccc1Nc1nc(-c2cc(Cl)ccc2F)nc2c1CCC2", "note": "[Compound 69]", "EC50": 1800},
      {"compound": "Cc1cnccc1Nc1nc(-c2cc(Cl)ccc2F)nn2cccc12", "note": "[Compound 80]", "EC50": 5800}
    ]}
  ]
}
